Experimental data published in paper PMC9694798, “Resveratrol Analogues as Dual Inhibitors of Monoamine Oxidase B and Carbonic Anhydrase VII: A New Multi-Target Combination for Neurodegenerative Diseases?” (Molecules, 2022).
Where “and” joins values, the source holds several entries; their conditions need not be identical. Identical values can stand only once.

Columns and labels:
[1] = biological target: T1, hCA II (Homo sapiens, UniProt P00918); assay: CA inhibition, stopped-flow CO2 hydration assay; format: biochemical; conditions: for Ki: stopped-flow technique, mean of three experiments, errors ±5–10%
T1 construct: His-tag (N); made in house; host or cells: Escherichia coli BL21 (DE3)

[2] = biological target: T2, hCA VA (Homo sapiens, UniProt P35218); assay: CA inhibition, stopped-flow CO2 hydration assay; format: biochemical; conditions: stopped-flow technique; mean of three experiments, errors ±5–10%
T2 construct: His-tag (N); made in house; host or cells: Escherichia coli BL21 (DE3)

[3] = biological target: T3, hCA IX (Homo sapiens, UniProt Q16790); assay: CA inhibition, stopped-flow CO2 hydration assay; format: biochemical; conditions: stopped-flow technique; mean of three experiments, errors ±5–10%
T3 construct: His-tag (N); made in house; host or cells: Escherichia coli BL21 (DE3)

[4] = biological target: hCA VII (Homo sapiens, UniProt P43166); assay: CA inhibition, stopped-flow CO2 hydration assay
[5] = biological target: T4, Recombinant human MAO-B (Homo sapiens, UniProt P27338); assay: In vitro MAO-B inhibition assay (kynuramine, fluorescence); format: biochemical; conditions: kynuramine substrate, mean ± S.D. of three independent experiments
T4 construct: purchased Sigma-Aldrich
T4 sequence (P27338 1-520): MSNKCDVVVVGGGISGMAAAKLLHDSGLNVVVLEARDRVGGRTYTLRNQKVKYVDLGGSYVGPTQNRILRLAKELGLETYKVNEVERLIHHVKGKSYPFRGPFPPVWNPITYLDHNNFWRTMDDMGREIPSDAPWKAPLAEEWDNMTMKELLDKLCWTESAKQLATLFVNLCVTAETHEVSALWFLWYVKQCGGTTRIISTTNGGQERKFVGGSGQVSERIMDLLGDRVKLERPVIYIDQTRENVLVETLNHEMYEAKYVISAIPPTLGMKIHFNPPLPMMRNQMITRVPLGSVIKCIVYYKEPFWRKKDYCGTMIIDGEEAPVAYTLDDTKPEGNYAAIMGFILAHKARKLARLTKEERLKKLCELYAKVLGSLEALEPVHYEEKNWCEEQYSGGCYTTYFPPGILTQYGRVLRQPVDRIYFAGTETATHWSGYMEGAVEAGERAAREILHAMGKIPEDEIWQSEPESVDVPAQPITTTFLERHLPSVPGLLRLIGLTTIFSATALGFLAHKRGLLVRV

[6] = biological target: T5, hCA VB (Homo sapiens, UniProt Q9Y2D0); assay: CA inhibition, stopped-flow CO2 hydration assay; format: biochemical; conditions: stopped-flow technique; mean of three experiments, errors ±5–10%
T5 construct: His-tag (N); made in house; host or cells: Escherichia coli BL21 (DE3)

[7] = biological target: T6, hCA I (Homo sapiens, UniProt P00915); assay: CA inhibition, stopped-flow CO2 hydration assay; format: biochemical; conditions: for Ki: stopped-flow technique, mean of three experiments, errors ±5–10%
T6 construct: His-tag (N); made in house; host or cells: Escherichia coli BL21 (DE3)

[8] = biological target: T7, hCA XII (Homo sapiens, UniProt O43570); assay: CA inhibition, stopped-flow CO2 hydration assay; format: biochemical; conditions: stopped-flow technique; mean of three experiments, errors ±5–10%
T7 construct: His-tag (N); made in house; host or cells: Escherichia coli BL21 (DE3)

[9] = system: MAO; set-up: method as in PMID 30809547; conditions: cited from earlier work
[10] = biological target: T8, Recombinant human MAO-A (Homo sapiens, UniProt P21397); assay: In vitro MAO-A inhibition assay (kynuramine, fluorescence); format: biochemical; conditions: kynuramine substrate, mean ± S.D. of three independent experiments
T8 construct: purchased Sigma-Aldrich
T8 sequence (P21397 1-527): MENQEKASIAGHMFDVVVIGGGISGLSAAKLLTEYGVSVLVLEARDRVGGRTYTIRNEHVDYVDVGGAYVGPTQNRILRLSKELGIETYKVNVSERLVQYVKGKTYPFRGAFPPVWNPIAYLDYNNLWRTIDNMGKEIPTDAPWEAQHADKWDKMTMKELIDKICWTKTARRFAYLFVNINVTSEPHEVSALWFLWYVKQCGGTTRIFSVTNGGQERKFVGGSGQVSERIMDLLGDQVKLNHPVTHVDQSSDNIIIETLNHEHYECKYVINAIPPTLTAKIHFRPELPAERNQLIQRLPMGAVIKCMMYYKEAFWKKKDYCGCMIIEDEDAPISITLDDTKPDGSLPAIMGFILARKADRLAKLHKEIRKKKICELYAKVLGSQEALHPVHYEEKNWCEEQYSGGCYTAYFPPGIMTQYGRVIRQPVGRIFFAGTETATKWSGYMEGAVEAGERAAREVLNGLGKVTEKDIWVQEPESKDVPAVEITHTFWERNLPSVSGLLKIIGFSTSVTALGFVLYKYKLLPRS

[11] = system: MAO-B; set-up: method as in PMID 7699569; conditions: cited from earlier work

T2 sequence (P35218 39-305): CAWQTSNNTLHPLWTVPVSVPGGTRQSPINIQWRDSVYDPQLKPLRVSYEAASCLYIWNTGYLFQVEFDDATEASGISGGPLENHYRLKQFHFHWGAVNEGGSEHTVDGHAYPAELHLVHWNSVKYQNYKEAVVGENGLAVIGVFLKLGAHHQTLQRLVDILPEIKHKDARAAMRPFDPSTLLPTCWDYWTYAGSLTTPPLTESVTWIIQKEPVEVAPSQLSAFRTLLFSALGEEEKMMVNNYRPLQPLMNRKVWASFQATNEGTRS
T7 sequence (O43570 25-354): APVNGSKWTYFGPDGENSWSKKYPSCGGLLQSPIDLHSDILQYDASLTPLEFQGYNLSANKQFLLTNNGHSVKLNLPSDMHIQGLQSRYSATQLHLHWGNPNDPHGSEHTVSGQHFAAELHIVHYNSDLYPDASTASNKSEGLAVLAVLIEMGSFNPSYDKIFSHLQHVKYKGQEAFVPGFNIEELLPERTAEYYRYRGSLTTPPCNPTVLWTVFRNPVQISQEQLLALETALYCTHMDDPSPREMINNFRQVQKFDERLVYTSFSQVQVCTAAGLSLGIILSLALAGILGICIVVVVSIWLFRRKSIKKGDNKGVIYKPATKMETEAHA
Chain of hCA VII (P43166 whole entry): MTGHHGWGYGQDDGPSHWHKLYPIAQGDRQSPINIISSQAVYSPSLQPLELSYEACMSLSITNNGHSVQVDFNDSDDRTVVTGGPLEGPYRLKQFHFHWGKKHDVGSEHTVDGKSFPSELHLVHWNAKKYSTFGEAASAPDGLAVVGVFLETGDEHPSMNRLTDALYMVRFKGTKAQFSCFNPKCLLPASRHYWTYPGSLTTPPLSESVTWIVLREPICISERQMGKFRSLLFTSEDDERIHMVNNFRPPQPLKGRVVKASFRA
T6 sequence (P00915 whole entry): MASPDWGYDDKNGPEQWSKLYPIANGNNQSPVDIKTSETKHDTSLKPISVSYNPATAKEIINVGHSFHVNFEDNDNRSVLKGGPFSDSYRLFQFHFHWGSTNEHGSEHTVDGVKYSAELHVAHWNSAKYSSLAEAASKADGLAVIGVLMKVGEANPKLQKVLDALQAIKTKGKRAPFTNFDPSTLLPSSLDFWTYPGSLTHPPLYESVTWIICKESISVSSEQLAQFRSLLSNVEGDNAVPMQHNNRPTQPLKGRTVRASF
T5 sequence (Q9Y2D0 34-317): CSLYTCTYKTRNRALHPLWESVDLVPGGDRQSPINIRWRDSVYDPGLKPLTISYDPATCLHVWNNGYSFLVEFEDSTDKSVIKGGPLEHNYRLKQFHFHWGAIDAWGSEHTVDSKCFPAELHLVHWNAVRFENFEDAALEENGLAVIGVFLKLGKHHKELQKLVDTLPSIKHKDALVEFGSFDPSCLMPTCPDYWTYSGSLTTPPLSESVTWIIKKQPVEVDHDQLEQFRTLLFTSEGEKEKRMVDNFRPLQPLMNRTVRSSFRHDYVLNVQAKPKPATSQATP

Oc1ccc(C=Cc2cc(O)cc(O)c2)cc1 [RSV, 3,4′,5-trihydroxystilbene, reference compound]
Ki [1]: 2.8 µM
Ki [2]: 4.7 µM
Ki [3]: 0.8 µM
Ki [4]: 4.3 µM
IC50 [5]: > 100 µM
Ki [6]: 4.6 µM
Ki [7]: 2.2 µM
Ki [8]: 0.9 µM
mechanism of MAO inhibition [9]: competitive

COc1ccc(/C=C/c2ccc(O)cc2)cc1 [Compound 7]
Ki [1]: > 100 µM
Ki [2]: > 100 µM
Ki [3]: 81.8 µM
Ki [4]: 9.4 µM
IC50 [5]: 0.185 ± 0.009 µM
Ki [6]: 9.7 µM
Ki [7]: > 100 µM
Ki [8]: > 100 µM
IC50 [10]: 2.71 ± 0.016 µM

Oc1ccc(/C=C/c2ccc(Cl)cc2Cl)cc1 [Compound 3]
Ki [1]: > 100 µM
Ki [2]: 86 µM
Ki [3]: > 100 µM
Ki [4]: 7.5 µM
IC50 [5]: 1.52 ± 0.067 µM
Ki [6]: > 100 µM
Ki [7]: > 100 µM
Ki [8]: > 100 µM
IC50 [10]: 1.79 ± 0.095 µM

N#Cc1ccc(/C=C/c2ccc(O)cc2)cc1 [Compound 6]
Ki [1]: 75.3 µM
Ki [2]: > 100 µM
Ki [3]: > 100 µM
Ki [4]: 7.4 µM
IC50 [5]: 0.103 ± 0.003 µM
Ki [6]: 9.5 µM
Ki [7]: > 100 µM
Ki [8]: > 100 µM
IC50 [10]: 2.01 ± 0.033 µM

Oc1ccc(/C=C/c2ccc(Cl)cc2Cl)cc1Cl [Compound 2]
Ki [1]: > 100 µM
Ki [2]: 37.2 µM
Ki [3]: 81.1 µM
Ki [4]: 4.2 µM
IC50 [5]: 1.44 ± 0.035 µM
Ki [6]: 32.2 µM
Ki [7]: > 100 µM
Ki [8]: 4.5 µM
IC50 [10]: 2.02 ± 0.175 µM

Oc1ccc(/C=C/c2ccccc2)cc1Cl [Compound 1]
Ki [1]: 35.8 µM
Ki [2]: 9 µM
Ki [3]: 23.6 µM
Ki [4]: > 100 µM
IC50 [5]: 0.156 ± 0.009 µM
Ki [6]: 84.5 µM
Ki [7]: 89.5 µM
Ki [8]: 2.7 µM
IC50 [10]: 3.06 ± 0.1 µM

Oc1ccc(/C=C/c2ccc(C(F)(F)F)cc2)cc1 [Compound 5]
Ki [1]: 43.4 µM
Ki [2]: 83 µM
Ki [3]: 94.6 µM
Ki [4]: > 100 µM
IC50 [5]: 14.2 ± 1.82 µM
Ki [6]: 8.7 µM
Ki [7]: > 100 µM
Ki [8]: > 100 µM
IC50 [10]: 9.77 ± 0.553 µM

Oc1ccc(/C=C/c2ccc(C(F)(F)F)cc2)cc1Cl [Compound 4]
inhibition potency against hCA II weaker than against hCA VII ([1]; hCA II vs hCA VII): about 22 fold
Ki [1]: 15.6 µM
Ki [2]: 70.9 µM
Ki [3]: 17.4 µM
Ki [4]: 0.7 µM
IC50 [5]: 0.011 ± 0.0065 µM
Ki [6]: 36.2 µM
inhibitory activities against hCA I, VA, and VB lower than against hCA VII ([7]; hCA I, VA, VB vs hCA VII): up to 120 fold
Ki [7]: 86.8 µM
Ki [8]: 6.9 µM
IC50 [10]: 0.43 µM and 0.433 µM
